Test results as given in patent US6894052B1, “Diarylalkylpiperazines active on the lower urinary tract” (Recordati S.A. Chemical and Pharmaceutical Company, priority 1997, dated 2005).
Read-outs that look alike come from different tables or passages of the source.

Legend:
[1] = system: rhythmic bladder voiding contractions; experiment: Volume-induced rhythmic bladder voiding contractions in anaesthetized rats; type: in vivo, rat; settings: for ED50: Rattus norvegicus, read-out: ED50 (frequency); for ED10min: extrapolated dose inducing 10 min of disappearance of the contractions
Protocol: Female Sprague Dawley rats weighing 225-275 g (Crl: CDo BR, Charles River Italia) were used. The animals were housed with free access to food and water and were maintained on a forced 12 h alternating light-dark cycle at 22-24° C. for at least one week, except during the experiment. The activity on the rhythmic bladder voiding contractions was evaluated according to the method of Dray (J. Pharmacol. Methods, 13:157, 1985), with some modifications as in Guarneri (Pharmacol. Res., 27:173, 1993). Briefly, rats were anesthetized by subcutaneous injection of 1.25 g/kg (5 ml/kg) urethane, after which the urinary bladder was catheterized via the urethra using PE 50 polyethylene tubing filled with physiological saline. The catheter was tied in place with a ligature around the external urethral orifice and was connected with conventional pressure transducers (Statham P23 ID/P23 XL). […] The bladder was then filled via the recording catheter by incremental volumes of warm (37° C.) saline until reflex bladder voiding contractions occurred (usually 0.8-1.5 ml). For intravenous (i.v.) injection of bioactive compounds, PE 50 polyethylene tubing filled with physiological saline was inserted into the jugular vein.
From the cystometrogram, the number of contractions recorded 15 min before (basal values) and after treatment, as well as the mean amplitude of these contractions (mean height of the peaks in mm Hg) was evaluated.
Since most compounds produced an effect that was relatively rapid in onset and led to a complete cessation of bladder contractions, bioactivity was conveniently estimated by measuring the duration of bladder quiescence (i.e., the duration of time during which no contractions occurred). Moreover, the number of animals tested showing a reduction in the number of contractions >30% of that observed in the basal period, was recorded. […] Also computed in this manner were extrapolated doses which induced a reduction of the number of contractions of greater than 30% in 50% of treated rats (ED50, frequency) by the method of Bliss (Bliss C. I., Quart. J. Pharm. Pharmacol. 11, 192-216, 1938). After the suppressive effects of drug injection wore off, the height of the contractile peaks was compared with the height of the peaks previously recorded after the control intravenous administration of vehicle. The potency of the tested compounds (ED50 value, the extrapolated doses inducing a 30% reduction of amplitude of the contractions in 50% of treated rats) was evaluated on a quantal basis by the method of Bliss (Bliss C. I., Quart. J. Pharm. Pharmacol. 11, 192-216, 1938).

[2] = target: T1, human 5-HT1A serotonergic receptor (Homo sapiens, UniProt P08908); experiment: Radioreceptor binding to recombinant human 5-HT1A receptors ([3H]8-OH-DPAT, HeLa cell membranes); settings: recombinant human receptor in HeLa membranes, [3H]8-OH-DPAT; read-out: Ki 5-HT1A
T1 construct: expressed in transfected cells; host or cells: HeLa (human), stably transfected; cell membranes
T1 sequence (P08908 1-422): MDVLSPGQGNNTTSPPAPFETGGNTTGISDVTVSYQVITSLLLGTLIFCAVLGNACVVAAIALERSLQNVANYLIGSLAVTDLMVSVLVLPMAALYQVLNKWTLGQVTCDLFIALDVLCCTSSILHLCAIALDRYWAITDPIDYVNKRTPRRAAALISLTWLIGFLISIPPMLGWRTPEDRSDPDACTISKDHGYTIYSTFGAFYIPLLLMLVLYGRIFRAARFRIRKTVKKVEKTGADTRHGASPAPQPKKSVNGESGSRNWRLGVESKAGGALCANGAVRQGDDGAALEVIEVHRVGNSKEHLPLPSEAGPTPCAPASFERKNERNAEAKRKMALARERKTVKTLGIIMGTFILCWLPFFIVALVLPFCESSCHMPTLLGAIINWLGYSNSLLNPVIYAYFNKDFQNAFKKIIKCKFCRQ
Protocol: Genomic clone G-21 coding for the human 5-HT1A serotonergic receptor is stably transfected in a human cell line (HeLa). HeLa cells were grown as monolayers in Dulbecco's modified Eagle's medium (DMEM), supplemented with 10% fetal calf serum and gentamicin ([…]), 5% CO2 at 37° C. Cells were detached from the growth flask at 95% confluence by a cell scraper and were lysed in ice-cold 5 mM Tris and 5 mM EDTA buffer (pH 7.4). Homogenates were centrifuged at 40000×g×20 min and pellets were resuspended in a small volume of ice-cold 5 mM Tris and 5 mM EDTA buffer (pH 7.4) and immediately frozen and stored at −70° C. until use. On the day of experiment, cell membranes were resuspended in binding buffer: 50 mM Tris HCl (pH 7.4), 2.5 mM MgCl2, 10 μM pargyline (Fargin et al., Nature 335, 358-360, 1988). Membranes were incubated in a final volume of 1 ml for 30 min at 30° C. with 0.2-1 nM [^3H]8-OH-DPAT, in absence or presence of competing drugs; non-specific binding was determined in the presence of 10 μM 5-HT. The incubation was stopped by addition of ice-cold Tris-HCl buffer and rapid filtration through 0.2% polyethyleneimine-pretreated Whatman GF/B or Schleieher & Schuell GF52 filters.
(§1) The inhibition of specific binding of the radioligands by the tested drugs was analyzed to estimate the IC50 value by using the non-linear curve-fitting program Allfit (De Lean et al., Am. J. Physiol. 235, E97-E102, 1978). The IC50 value is converted to an affinity constant (Ki) by the equation of Cheng & Prusoff (Cheng, Y. C.; Prusoff, W. H. Biochem. Pharmacol. 22, 3099-3108, 1973).

[3] = target: T2, 5-HT2A serotonergic receptors (Rattus norvegicus, UniProt P14842); experiment: Radioreceptor binding to native 5-HT2A serotonergic receptors ([3H]ketanserin, rat cerebral cortex membranes)
T2 construct: from tissue; host or cells: cerebral cortex of male Sprague Dawley rats, membranes
Protocol: Binding studies on native 5-HT2A serotonergic receptors (Craig A. and Kenneth J., Life Sci. 38, 117-127, 1986) were carried out in membranes of rat cerebral cortex. Male Sprague Dawley rats (200-300 g, S D Harlan/Nossan, Italy) were killed by cervical dislocation and cerebral cortexes were excised and immediately frozen in liquid nitrogen and stored at −70° C. until use. Tissues were homogenized (2×20 sec) in 50 volumes of cold 50 mM Tris-HCl buffer pH 7.4, using a Polytron homogenizer (speed 7). Homogenates were centrifuged at 49000×g for 10 min, resuspended in 50 volumes of the same buffer, incubated at 37° C. for 15 min and centrifuged and resuspended twice more. The final pellets were suspended in 100 volumes of 50 mM Tris-HCl buffer pH 7.7. Membranes were incubated in a final volume of 1 ml for 20 min at 37° C. with 0.7-1.3 nM [^3H]ketanserin (5-HT2A receptors), in absence or presence of competing drugs. Non-specific binding was determined in the presence of 2 μM ketanserin. The incubation was stopped by addition of ice-cold 50 mM Tris-HCl buffer and rapid filtration through 0.2% polyethyleneimine pretreated Whatman GF/B or Schleicher & Schuell GF52 filters. The filters are then washed with ice-cold buffer and the radioactivity retained on the filters was counted by liquid scintillation spectrometry.
as §1

α1 adrenergic receptors = experiment: Radioreceptor binding to native α1 adrenergic receptors ([3H]prazosin, rat cerebral cortex membranes)
Protocol: Binding studies on native α1 adrenergic receptors were carried out in membranes of rat cerebral cortex. Male Sprague Dawley rats (200-300 g, Charles River, Italy) were killed by cervical dislocation and cerebral cortexes were dissected and immediately frozen and stored at −70° C. until use. Tissue was homogenized (2×20 sec) in 50 volumes of cold 50 mM Tris-HCl buffer pH 7.4, using a Polytron homogenizer (speed 7). Homogenates were centrifuged at 48000×g for 10 min, resuspended in 50 volumes of the same buffer, incubated at 37° C. for 15 min and centrifuged and resuspended twice more. The final pellets were suspended in 100 volumes of 50 mM Tris-HCl buffer pH 7.4, containing 10 μM pargyline and 0.1% ascorbic acid. Membranes were incubated in a final volume of 1 ml for 30 min at 25° C. with 0.1-0.5 nM [^3H]prazosin, in the absence or presence of competing drugs; non-specific binding was determined in the presence of 10 μM phentolamine.
The incubation was stopped by addition of ice-cold 50 mM Tris-HCl buffer and rapid filtration through 0.2% polyethyleneimine-pretreated Whatman GF/B or Schleicher & Schuell GF52 filters. The filters were then washed with ice-cold buffer and the radioactivity retained on the filters counted by liquid scintillation spectrometry.
as §1

[4] = intravenous administration, anaesthetized rats

T2 sequence (P14842 whole entry): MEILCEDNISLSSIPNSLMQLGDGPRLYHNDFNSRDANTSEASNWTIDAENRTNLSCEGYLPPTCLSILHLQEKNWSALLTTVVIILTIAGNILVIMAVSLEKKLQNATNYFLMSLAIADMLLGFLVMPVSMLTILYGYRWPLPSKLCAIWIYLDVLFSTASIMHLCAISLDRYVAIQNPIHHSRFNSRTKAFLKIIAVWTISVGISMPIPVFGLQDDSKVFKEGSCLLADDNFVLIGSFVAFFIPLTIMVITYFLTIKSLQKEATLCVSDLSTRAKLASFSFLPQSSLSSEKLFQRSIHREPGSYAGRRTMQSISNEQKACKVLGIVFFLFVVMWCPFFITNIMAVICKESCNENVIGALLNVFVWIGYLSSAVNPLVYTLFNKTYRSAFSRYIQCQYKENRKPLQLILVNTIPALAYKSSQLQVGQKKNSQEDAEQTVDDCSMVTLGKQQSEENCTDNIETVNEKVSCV

COc1ccccc1N1CCN(CCC(C#N)(c2ccccc2)c2ccccn2)CC1.Cl.Cl (stereo not shown) [Ex. 7, 1-[3-cyano-3-phenyl-3-(2-pyridyl)propyl]-4-(2-methoxyphenyl)piperazine dihydrochloride] gave an ED50 ([1]; iv) of 0.018 mg/kg, an ED10min [1, 4] of 0.078 mg/kg and a Ki [2] of 7.7 nM. It also gave a Ki [3] of 140 nM and a Ki (α1 adrenergic receptors) of 396 nM.

COc1ccccc1N1CCN(CCC(c2ccccc2)c2ccccn2)CC1 (stereo not shown) [Ex. 9, 1-[3-phenyl-3-(2-pyridyl)propyl]-4-(2-methoxyphenyl)piperazine] was tested, and the ED50 ([1]; intravenous administration, anaesthetized rats, extrapolated dose inducing a reduction of the number of contractions >30% in 50% of treated rats) was 0.025 mg/kg, the ED10min [1, 4] was 0.077 mg/kg and the Ki [2] was 0.62 nM. It also gave a Ki ([3]; rat cerebral cortex membranes, [3H]ketanserin, read-out: Ki 5-HT2A) of 1020 nM and a Ki (α1 adrenergic receptors) of 268 nM.
